Laboratory results as given in patent US20090131431A1, “Pyrazolo[3,4-b]pyridine compounds, and their use as a PDE4 inhibitors” (priority 2005, published 2009).
Where a name gives a salt, the structure may show the parent alone.

These molecules were tested against T1, PDE4B (human recombinant) (Homo sapiens, UniProt Q07343) (assay: Inhibition of PDE4B activity: SPA and/or Fluorescence Polarisation (FP) assay). Conditions: one reading (n=1) or average of 2 or more readings, read-out: PDE4B pIC50 (±about 0.5) (converted).
T1 construct: made in house
T1 sequence (Q07343 1-564 isoform Q07343-2): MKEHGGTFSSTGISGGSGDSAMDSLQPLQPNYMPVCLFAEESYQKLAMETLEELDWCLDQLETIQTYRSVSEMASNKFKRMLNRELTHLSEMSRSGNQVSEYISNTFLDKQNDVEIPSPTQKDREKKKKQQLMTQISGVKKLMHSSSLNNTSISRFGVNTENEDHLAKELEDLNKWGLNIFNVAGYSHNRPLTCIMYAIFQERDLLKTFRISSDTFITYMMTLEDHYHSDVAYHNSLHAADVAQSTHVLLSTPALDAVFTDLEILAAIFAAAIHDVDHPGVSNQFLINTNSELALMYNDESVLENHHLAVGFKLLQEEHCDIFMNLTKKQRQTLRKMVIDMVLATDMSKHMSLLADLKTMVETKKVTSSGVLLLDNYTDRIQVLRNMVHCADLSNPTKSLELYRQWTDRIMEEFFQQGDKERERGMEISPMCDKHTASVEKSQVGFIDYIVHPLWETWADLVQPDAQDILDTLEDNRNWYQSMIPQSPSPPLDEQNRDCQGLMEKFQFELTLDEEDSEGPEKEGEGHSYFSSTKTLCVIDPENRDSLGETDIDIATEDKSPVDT
Format: biochemical
Description: The ability of compounds to inhibit catalytic activity at PDE4B or 4D (human recombinant), PDE3 (from bovine aorta), PDE5 (human recombinant) or PDE6 (from bovine retina) can optionally be determined by Scintillation Proximity Assay (SPA) in a 96-well format.
The enzyme concentration is adjusted so that no more than 20% hydrolysis of the substrate defined below occurs in control wells without compound, during the incubation. For the PDE3, PDE4B and PDE4D assays, [5′,8-3H]Adenosine 3′,5′-cyclic phosphate (Amersham Pharmacia Biotech, code TRK.559; or Amersham Biosciences UK Ltd, Pollards Wood, Chalfont St Giles, Buckinghamshire HP8 4SP, UK) is added to give 0.05 uCi per well and about 10 nM final concentration. […] Plates containing assay mixture, suitably approx. 100 ul volume of assay mixture, are mixed on an orbital shaker for 5 minutes and incubated at ambient temperature for 1 hour. Phosphodiesterase SPA beads (Amersham Pharmacia Biotech, code RPNQ 0150) are added (about 1 mg per well) to terminate the assay. Plates are sealed and shaken and allowed to stand at ambient temperature for 35 minutes to 1 hour (suitably 35 minutes) to allow the beads to settle. […] Curves are analysed using ActivityBase and XLfit (ID Business Solutions Limited, 2 Ocean Court, Surrey Research Park, Guildford, Surrey GU2 7QB, United Kingdom). Results are expressed as pIC50 values.
The ability of compounds to inhibit catalytic activity at PDE4B (human recombinant) or PDE4D (human recombinant) can optionally be determined by IMAP Fluorescence Polarisation (FP) assay (IMAP Explorer kit, available from Molecular Devices Corporation, Sunnydale, Calif., USA; Molecular Devices code: R8062) in 384-well format.
The IMAP FP assay is able to measure PDE activity in an homogenous, non-radioactive assay format. The FP assay uses the ability of immobilised trivalent metal cations, coated onto nanoparticles (tiny beads), to bind the phosphate group of Fl-AMP that is produced on the hydrolysis of fluorescein-labelled (Fl) cyclic adenosine mono-phosphate (Fl-cAMP) to the non-cyclic Fl-AMP form. […] Binding of Fl-AMP product to the beads (coated with the immobilised trivalent cations) slows the rotation of the bound Fl-AMP and leads to an increase in the fluorescence polarisation ratio of parallel to perpendicular light. Inhibition of the PDE reduces/inhibits this signal increase.
The enzyme level is set by experimentation so that reaction is linear throughout the incubation. Fluorescein adenosine 3′,5′-cyclic phosphate (from Molecular Devices Corporation, Molecular Devices code: R7091) is added to give about 40 nM final concentration (final assay volume usually ca. 20-40 ul, suitably ca. 20 ul). Plates are mixed on an orbital shaker for 10 seconds and incubated at ambient temperature for 40 minutes. IMAP binding reagent (as described above, from Molecular Devices Corporation, Molecular Devices code: R7207) is added (60 ul of a 1 in 400 dilution in binding buffer of the kit stock solution) to terminate the assay. Plates are allowed to stand at ambient temperature for 1 hour. The Fluorescence Polarisation (FP) ratio of parallel to perpendicular light is measured using an Analyst™ plate reader (from Molecular Devices Corporation). […] Curves are analysed using ActivityBase and XLfit (ID Business Solutions Limited, 2 Ocean Court, Surrey Research Park, Guildford, Surrey GU2 7QB, United Kingdom). Results are expressed as plC50 values.

IC50 [nM] | SMILES
0.126 to 1 | CCc1nc2c(cnn2CC)c(NC2CCOCC2)c1CNC(=O)c1cccc2c1CCC2 [Example 189, N-{[1,6-diethyl-4-(tetrahydro-2H-pyran-4-ylamino)-1H-pyrazolo[3,4-b]pyridin-5-yl]methyl}-2,3-dihydro-1H-indene-4-carboxamide]
0.01 to 0.1 | CCc1nc2c(cnn2CC)c(NC2CCOCC2)c1CNC(=O)c1cccc(N2CCOCC2)c1 [Example 190, N-{[1,6-diethyl-4-(tetrahydro-2H-pyran-4-ylamino)-1H-pyrazolo[3,4-b]pyridin-5-yl]methyl}-3-(4-morpholinyl)benzamide]
0.126 to 1 | CCc1nc2c(cnn2CC)c(NC2CCOCC2)c1CNC(=O)c1ccc2ccccc2c1 [Example 191, N-{[1,6-diethyl-4-(tetrahydro-2H-pyran-4-ylamino)-1H-pyrazolo[3,4-b]pyridin-5-yl]methyl}-2-naphthalenecarboxamide]
0.126 to 1 | CCc1nc2c(cnn2CC)c(NC2CCOCC2)c1CNC(=O)c1cccc2ccccc12 [Example 192, N-{[1,6-diethyl-4-(tetrahydro-2H-pyran-4-ylamino)-1H-pyrazolo[3,4-b]pyridin-5-yl]methyl}-1-naphthalenecarboxamide]
0.01 to 0.1 | CCc1nc2c(cnn2CC)c(NC2CCOCC2)c1CNC(=O)c1ccc(C(C)C)cc1 [Example 193, N-{[1,6-diethyl-4-(tetrahydro-2H-pyran-4-ylamino)-1H-pyrazolo[3,4-b]pyridin-5-yl]methyl}-4-(1-methylethyl)benzamide]
0.01 to 0.1 | CCc1nc2c(cnn2CC)c(NC2CCOCC2)c1CNC(=O)c1ccc(NC(C)=O)cc1 [Example 194, 4-(acetylamino)-N-{[1,6-diethyl-4-(tetrahydro-2H-pyran-4-ylamino)-1H-pyrazolo[3,4-b]pyridin-5-yl]methyl}benzamide]
0.126 to 1 | CCc1nc2c(cnn2CC)c(NC2CCOCC2)c1CNC(=O)c1ccccc1 [Example 196, N-{[1,6-diethyl-4-(tetrahydro-2H-pyran-4-ylamino)-1H-pyrazolo[3,4-b]pyridin-5-y]methyl}benzamide]
0.126 to 1 | CCc1nc2c(cnn2CC)c(NC2CCN(C(N)=O)CC2)c1CNC(=O)c1ccc2c(c1)CCC2 [Example 206, 4-[(5-{[(2,3-dihydro-1H-inden-5-ylcarbonyl)amino]methyl}-1,6-diethyl-1H-pyrazolo[3,4-b]pyridin-4-yl)amino]-1-piperidinecarboxamide]
0.01 to 0.1 | CCc1nc2c(cnn2CC)c(NC2CCN(C(N)=O)CC2)c1CNC(=O)c1ccc(N2CCCC2=O)cc1 [Example 209, 4-({1,6-diethyl-5-[({[4-(2-oxo-1-pyrrolidinyl)phenyl]carbonyl}amino)methyl]-1H-pyrazolo[3,4-b]pyridin-4-yl}amino)-1-piperidinecarboxamide]
0.126 to 1 | CCn1ncc2c(NC3CCOCC3)c(CNC(=O)c3ccc(-n4cccc4)nc3)c(C)nc21 [Example 214, N-{[1-ethyl-6-methyl-4-(tetrahydro-2H-pyran-4-ylamino)-1H-pyrazolo[3,4-b]pyridin-5-yl]methyl}-6-(1H-pyrrol-1-yl)-3-pyridinecarboxamide]
0.126 to 1 | CCn1ncc2c(NC3CCOCC3)c(CNC(=O)c3cccc(N4CCCC4=O)c3)c(C)nc21 [Example 216, N-{[1-ethyl-6-methyl-4-(tetrahydro-2H-pyran-4-ylamino)-1H-pyrazolo[3,4-b]pyridin-5-yl]methyl}-3-(2-oxo-1-pyrrolidinyl)benzamide]

Continued, molecule first:

SMILES | IC50 [nM]
CCc1nc2c(cnn2CC)c(NC2CCOCC2)c1CNC(=O)c1ccoc1C [Example 195, N-{[1,6-diethyl-4-(tetrahydro-2H-pyran-4-ylamino)-1H-pyrazolo[3,4-b]pyridin-5-yl]methyl}-2-methyl-3-furancarboxamide] | 0.126 to 1
CCc1nc2c(cnn2CC)c(NC2CCOCC2)c1CN1Cc2occc2C1=O [Example 198, 5-{[1,6-diethyl-4-(tetrahydro-2H-pyran-4-ylamino)-1H-pyrazolo[3,4-b]pyridin-5-yl]methyl}-5,6-dihydro-4H-furo[2,3-c]pyrrol-4-one] | 0.126 to 1
CCc1nc2c(cnn2CC)c(NC2CCOCC2)c1CN1Cc2ccccc2C1=O [Example 199, 2-{[1,6-diethyl-4-(tetrahydro-2H-pyran-4-ylamino)-1H-pyrazolo[3,4-b]pyridin-5-yl]methyl}-2,3-dihydro-1H-isoindol-1-one] | 0.01 to 0.1
CCc1nc2c(cnn2CC)c(NC2CCOCC2)c1CNC(=O)NCc1ccccc1 [Example 200] | 0.126 to 1
CCc1nc2c(cnn2CC)c(NC2CCOCC2)c1CNC(=O)NCCc1ccccc1 [Example 202, N-{[1,6-diethyl-4-(tetrahydro-2H-pyran-4-ylamino)-1H-pyrazolo[3,4-b]pyridin-5-yl]methyl}-N′-(2-phenylethyl)urea] | 0.126 to 1
CCc1nc2c(cnn2CC)c(NC2CCOCC2)c1CNC(=O)Nc1ccccc1 [Example 203, N-{[1,6-diethyl-4-(tetrahydro-2H-pyran-4-ylamino)-1H-pyrazolo[3,4-b]pyridin-5-yl]methyl}-N′-phenylurea] | 0.126 to 1
CCc1nc2c(cnn2CC)c(NC2CCN(C(N)=O)CC2)c1CNC(=O)c1ccc(N2CCCCC2)cc1 [Example 204, 4-({1,6-diethyl-5-[({[4-(1-piperidinyl)phenyl]carbonyl}amino)methyl]-1H-pyrazolo[3,4-b]pyridin-4-yl}amino)-1-piperidinecarboxamide] | 0.01 to 0.1
CCc1nc2c(cnn2CC)c(NC2CCN(C(N)=O)CC2)c1CNC(=O)c1cccc2c1OCC2 [Example 205, 4-[(5-{[(2,3-dihydro-1-benzofuran-7-ylcarbonyl)amino]methyl}-1,6-diethyl-1H-pyrazolo[3,4-b]pyridin-4-yl)amino]-1-piperidinecarboxamide] | 0.01 to 0.1
CCc1nc2c(cnn2CC)c(NC2CCN(C(N)=O)CC2)c1CNC(=O)c1ccc(N2CCOCC2)cc1 [Example 207, 4-({1,6-diethyl-5-[({[4-(4-morpholinyl)phenyl]carbonyl}amino)methyl]-1H-pyrazolo[3,4-b]pyridin-4-yl}amino)-1-piperidinecarboxamide] | 0.01 to 0.1
CCc1nc2c(cnn2CC)c(NC2CCN(C(N)=O)CC2)c1CNC(=O)c1ccc(C(C)C)cc1 [Example 208, 4-({1,6-diethyl-5-[({[4-(1-methylethyl)phenyl]carbonyl}amino)methyl]-1H-pyrazolo[3,4-b]pyridin-4-yl}amino)-1-piperidinecarboxamide] | 0.01 to 0.1
CCc1nc2c(cnn2CC)c(NC2CCN(C(N)=O)CC2)c1CNC(=O)c1ccc(C2CCCC2)cc1 [Example 210, 4-{[5-({[(4-cyclopentylphenyl)carbonyl]amino}methyl)-1,6-diethyl-1H-pyrazolo[3,4-b]pyridin-4-yl]amino}-1-piperidinecarboxamide] | 0.01 to 0.1
CCc1nc2c(cnn2CC)c(NC2CCN(C(N)=O)CC2)c1CNC(=O)c1ccccc1O [Example 211, 4-{[1,6-diethyl-5-({[(2-hydroxyphenyl)carbonyl]amino}methyl)-1H-pyrazolo[3,4-b]pyridin-4-yl]amino}-1-piperidinecarboxamide] | 0.01 to 0.1
CCc1nc2c(cnn2CC)c(NC2CCN(C(N)=O)CC2)c1CN1Cc2ccccc2C1=O [Example 212, [4-({1,6-diethyl-5-[(1-oxo-1,3-dihydro-2H-isoindol-2-yl)methyl]-1H-pyrazolo[3,4-b]pyridin-4-yl}amino)-1-piperidinecarboxamide], Formate] | 0.01 to 0.1
